Data as given in patent US9067923B2, “Substituted quinoxalines” (Kyowa Hakko Kirin Co., Ltd., priority 2011, dated 2015).

Tests used:
CYP3A4 = test: Induction of CYP3A4 using HepaRG cells (midazolam metabolizing activity); assay type: in vitro ADME; conditions: 1 μmol/L test compound, 72 hours, 1'-hydroxymidazolam formation relative to DMSO negative control
Experimental: CYP3A4-inducing activity was evaluated using HepaRG cells (Biopredic international). HepaRG cells were suspended in a medium at a concentration of 0.72×10^6 cells/mL and added in a volume of 100 μL to each well of a 96-well collagen coated plate (Biopredic international). The medium used for seeding HepaRG cells was HepaRG Thawing and Seeding Medium 670 (Biopredic international) and the medium used during treatment with a test compound was HepaRG Serum-free Induction Medium 650 (Biopredic international). Three days after the seeding of HepaRG cells, treatment with a test compound was started. After 200 μL of HepaRG Serum-free Induction Medium 650 was added to each well of the 96-well, collagen plate, a test compound dissolved in dimethylsulfoxide (DMSO) was added in a volume of 0.5 μL to each well so that the final concentration was 1 μmol/L. The well to which only DMSO was added was used as a negative control. The medium in the wells containing the test compound was replaced every 24 hours and the treatment with the test compound was continued for 72 hours. The fourth day after the start of the treatment with the test compound, midazolam, which is a typical substrate for CYP3A4, was added and CYP3A4-inducing activity was evaluated by measuring changes in the metabolic activity. The medium was removed by suction and each well was washed twice with PBS (150 μL/well) warmed to 37° C. HepaRG Serum-free Induction Medium 650 containing 20 μmol/L midazolam was warmed to 37° C. and added in a volume of 100 μL to each well. The plate was incubated in a CO2 incubator for 2 hours. At the end of the reaction, 70 μL of the reaction medium was recovered from each well and mixed with 70 μL of a methanol solution containing an internal standard (propranolol, 2 μmol/L). The mixture was centrifuged (at 5000×g at 4° C. for 10 minutes) and the supernatant was used as an analysis sample. The midazolam metabolizing activity was evaluated by measuring the amount of a produced metabolite by CYP3A4, 1′-hydroxymidazolam, by means of a liquid chromatograph-tandem mass spectrometry (LC-MS/MS). Agilent 1100 series (Agilent technologies) was used as the LC device, API2000 (AB sciex) was used as the MSMS device, and HTC PAL (CTC analytics) was used as the autosampler. CAPCELL PAK C18 ACR column (3 μm, 3 mm (I. D.)×35 mm, purchased from Shiseido Co., Ltd.) was used as the analytical column. The mobile phase A was 10 mmol/L aqueous ammonium acetate solution and the mobile phase B was methanol. The gradient conditions were 0 min (B=30%), 0.2 min (B=30%), 2.2 min (B=95%), 4 min (B=95%), 4.01 min (B=30%), 5 min (B=30%). The flow rate was 0.6 mL/min and the sample injection volume was 30 μL. The ions were detected by atmospheric pressure ionization mode using the MSMS device. The detection was performed by multiple reaction monitoring and the 1′-hydroxy midazolam ions were detected at m/z (precursor ion>product ion)=342.1>168.2.
The fold induction by each test compound was determined by using formula A2 below, which is for calculating the fold induction as the ratio of the metabolic activity in the test compound-treatment group to that of the negative control group (DMSO-treatment group).

[1] = tested on: production of kynurenine in human gastric cancer cell line KATO-III; test: Inhibitory activity on the production of kynurenine (IFN-γ-treated KATO-III cells); assay type: cell-based; conditions: 10 μmol/L test compound, KATO-III cells treated with IFN-γ, 96 hours
Experimental: This assay was performed by a modification of the method described in J. Biol. Chem., vol. 263, pp. 2041-2048 ([…]). For culture of the human gastric cancer cell line […], RPMI 1640 (GIBCO, 11875) supplemented with 10 vol % FBS (GIBCO, 10091-148, lot. 665285) was used. One μL of a test substance in a DMSO solution was diluted with 199 μL of the culture medium and placed in wells of a 384-well plate (10 μL/well). Next, IFN-γ (Sigma, I-3265) was added to a fresh culture medium to a concentration of 31.25 ng/mL, and KATO-III cells were suspended at 50,000 cells/mL in the culture medium. Forty μL of the suspension was added to each well (2,000 cells/well) and cultured under 5% CO2 at 37° C. for 96 hours. The final concentration of DMSO was limited to 0.1 vol % or less so that DMSO itself may not affect the kynurenine concentration measured in this assay. After the culture, 10 μL of a 30 w/v % aqueous trichloroacetic acid solution was added to each well, and incubation was performed at 65° C. for 30 minutes. The plate was centrifruged at 2,500×g for 5 minutes and 15 μL of the supernatant in each well was transferred into another 384-well plate. To the transferred supernatant, 15 μL of a 2 w/v % solution of p-dimethylaminobenzaldehyde in acetic acid was added, incubation was performed at 65° C. for 20 minutes and the absorbance was measured at 480 nm.
Sample: the absorbance value of the well to which DMSO solution containing a test substance was added and in which the cells were treated with IFN-γ.
Blank: the absorbance value of the well to which DMSO not containing a test substance was added and in which the cells were treated with IFN-γ.
Control: the absorbance value of the well to which DMSO not containing a test substance was added and in which the cells were not treated with IFN-γ.
The inhibition % of each test compound was calculated by formula A1.
In this assay, the expression of IDO in KATO-III cells is induced by IFN-γ treatment, and kynurenine in the culture medium is quantified. The kynurenine concentration in a culture medium is known to increase in proportion to the enzymatic activity of intracellular IDO (for example, J. Biol. Chem., vol. 263, pp. 2041-2048 (1988)). […] The production of kynurenine is known to be inhibited by IDO inhibitors (for example, J. Clin. Invest., vol. 117, No. 5, pp. 1147-1154 ([…])), and thus it is speculated that compounds (I) also have an inhibitory effect on IDO.

SMILES	Fold induction (CYP3A4)	inhibition at 10 µM [1] [%]
CCCS(=O)(=O)Nc1nc2ccccc2nc1OC(c1ccc(-c2noc(C3CC3)n2)nc1)C(F)(F)F (stereo not shown) [Compound 25, N-(3-(1-(6-(5-cyclopropyl-1,2,4-oxadiazol-3-yl)pyridin-3-yl)-2,2,2-trifluoroethoxy)quinoxalin-2-yl)propane-1-sulfonamide]	1.41	≥ 80
COCCS(=O)(=O)Nc1nc2ccccc2nc1OC(c1ccc(-c2noc(C)n2)nc1)C(F)(F)F (stereo not shown) [Compound 27, 2-methoxy-N-(3-(2,2,2-trifluoro-1-(6-(5-methyl-1,2,4-oxadiazol-3-yl)pyridin-3-yl)ethoxy)quinoxalin-2-yl) ethanesulfonamide]	1.21	–
CCCS(=O)(=O)Nc1nc2ccccc2nc1O[C@H](c1ccc(-c2noc(C)n2)nc1)C(F)(F)F [Compound 28, (R)-N-(3-(2,2,2-trifluoro-1-(6-(5-methyl-1,2,4-oxadiaxol-3-yl)pyridin-3-yl)ethoxy)quinoxalin-2-yl)propane-1-sulfonamide]	1.27	–
COCCS(=O)(=O)Nc1nc2ccccc2nc1O[C@H](c1ccc(-c2cnco2)nc1)C(F)(F)F [Compound 30, (R)-2-methoxy-N-(3-(2,2,2-trifluoro-1-(6-(oxazol-5-yl)pyridin-3-yl)ethoxy)quinoxalin-2-yl)ethanesulfonamide]	1.12	≥ 80
COCCS(=O)(=O)Nc1nc2ccccc2nc1O[C@H](c1ccc(-c2noc(C3CC3)n2)nc1)C(F)(F)F [Compound 37, (R)-N-(3-(1-(6-(5-cyclopropyl-1,2,4-oxadiasol-3-yl)pyridin-3-yl)-2,2,2-trifluoroethoxy)quinoxalin-2-yl)-2-methoxyethanesulfonamide]	1.33	–
